Measurements: patent publication US11160871B2, “SSTR-targeted conjugates and particles and formulations thereof” (TARVEDA THERAPEUTICS, INC., priority 2015, dated 2021)

Columns and labels:
[1] = molecular target: SSTR3 (Homo sapiens, UniProt P32745); assay: Radioligand-receptor binding assay, same method; settings: read-out: Conjugate 57 Ki
Procedure: (§1) Two conjugates were assessed in an in vitro assay evaluating binding to the somatostatin receptor 2 (SSTR2). A radioligand-receptor binding assay was conducted at Eurofins Panlabs (Taiwan) to determine the affinity of conjugates described herein to the SSTR2. The assay measures binding of radiolabeled ligand, [^125I] labeled somatostatin, to human SSTR2 using membrane preparations from SSTR2 expressing CHO-K1 cells. Membranes were incubated with radiolabeled somatostatin (0.03 nM) in the presence of conjugate/compound starting at a dose of 10 uM using 6× serial dilutions to obtain a 10-pt curve. After a four hour incubation, membranes were filtered and washed 3× and counted to determine the remaining[^125 I] somatostatin bound to the receptor. IC50 values were determined by a non-linear, least squares regression analysis using MathIQ™ (ID Business Solutions Ltd., UK). The Ki values were calculated using the equation of Cheng and Prusoff (Cheng and Prusoff, Biochem. Pharmacol. 22:3099-3108, 1973) using the observed IC50 of the tested conjugate/compound, the concentration of radioligand employed in the assay, and the historical values for the KD of the ligand obtained at Eurofins.
(§2) In another study, the binding of Conjugate 57 to the five SSTRs was measured with the same method. Conjugate 57 binds selectively and with high affinity to SSTR2.

[2] = molecular target: SSTR4 (Homo sapiens, UniProt P31391); assay: Radioligand-receptor binding assay, same method; settings: read-out: Conjugate 57 Ki
Procedure: as §1, §2

[3] = molecular target: SSTR1 (Homo sapiens, UniProt P30872); assay: Radioligand-receptor binding assay, same method; settings: read-out: Conjugate 57 Ki
Procedure: as §1, §2

[4] = molecular target: SSTR5 (Homo sapiens, UniProt P35346); assay: Radioligand-receptor binding assay, same method; settings: read-out: Conjugate 57 Ki
Procedure: as §1, §2

[5] = Single dose exploratory toxicity study; assay type: in vivo, SD female rat
Procedure: Single dose exploratory toxicity studies in SD female rat (dose 0.5 mg/kg to 1.5 mg/kg) for 7-10 days were carried out. Clinical observations, body weight, clinical blood chemistry, histopathology, and complete blood counts were assessed. In the 10-day study, DM1 (0.4 mg/kg) was compared to Conjugate 57 at an equivalent dose of DM1 (1.0 mg/kg of conjugate) and at a 50% higher dose (1.5 mg/kg of conjugate).
Decreased white blood cell (WBC) count is a known dose limiting toxicity of DM1. WBC count was tracked in all groups.
Liver toxicity is also a know dose limiting toxicity of DM1. Alanine transaminase (ALT) and aspartate aminotransferase (AST) are markers of liver toxicity and were measured in all groups.

[6] = tested on: IMR-32 cells; assay: In vitro competitive assay in IMR-32 cells; assay type: cell-based; settings: absence of octreotide
Procedure: First, an in vitro competitive assay was conducted where IMR-32 cells were treated with Conjugate 57 in the absence or presence of an excess of octreotide. […] Pre-incubation with octreotide affected the inhibition.

[7] = tested on: H69 tumor; assay: Histological staining of PH3 and CC3 in periphery, middle and core of H69 tumor; assay type: in vivo
Source text: Histological staining of PH3 and CC3 in periphery, middle and core of H69 tumor after Conjugate 57 treatment was shown in FIG. 22A and FIG. 22B. The periphery sample was taken from roughly the outside ⅓ of the tumor. The core sample was taken from roughly the center ⅓ of the tumor. The middle sample was taken from roughly ⅓ in between these locations. Using a 40× high-powered objective, positively stained cells were counted, one field per animal, 3 animals per treatment group. Each field was roughly 500 μm in size. In general, the PH3 staining was strongest on the periphery and decreased as you moved towards the center of the tumor.

[8] = tested on: H69 tumors; assay: PD studies with H69 model, PH3 and CC3 by Western blot and IHC; assay type: in vivo
Procedure: PD studies were carried out with H69 model to determine the in vivo response of conjugate effects on tumor cells and timing/peak response. Conjugate 57 and Conjugate 57 in nanoparticles (Conjugate 57/NP20) were tested at 2 mg/kg. NP20 formulation has been described in EXAMPLE 2. Western blot and IHC staining were carried out to measure PH3 and CC3 levels.
PH3 is correlated chromosome condensation during both mitosis and meiosis. […] As shown in Western Blot results in FIG. 18A, the peak response for PH3 occurs at 48 hours for both the conjugate and the conjugate in the nanoparticle. […] PH3 level was steady for Conjugate 57/NP20 samples.
CC3 is a marker of apoptosis. It is the executioner of apoptosis and tightly regulated. A peak in activity is seen for both Conjugate 57 and Conjugate 57/NP20 at 72 hours (FIG. 19). The activity of Conjugate 57 is stronger as compared to Conjugate 57/NP20, consistent with the PH3 results.
Cell arrest as indicated by PH3 levels peaked at 48 hr and apoptosis as indicated by CC3 levels peaked at 72 hr.

[9] = molecular target: hERG (Homo sapiens, UniProt Q12809); assay: IonWorks Quattro hERG assay; assay type: cell-based; settings: up to 10 uM
[10] = tested on: NCI-H524 cells; assay: PH3 assay of cell-cycle arrest; assay type: cell-based, human
Source text: Results of a PH3 assay measuring effect on cell-cycle arrest that looks at phospho histone H3 (PH3) increases were shown in FIG. 2B.

SSTR5, sequence (P35346 whole entry): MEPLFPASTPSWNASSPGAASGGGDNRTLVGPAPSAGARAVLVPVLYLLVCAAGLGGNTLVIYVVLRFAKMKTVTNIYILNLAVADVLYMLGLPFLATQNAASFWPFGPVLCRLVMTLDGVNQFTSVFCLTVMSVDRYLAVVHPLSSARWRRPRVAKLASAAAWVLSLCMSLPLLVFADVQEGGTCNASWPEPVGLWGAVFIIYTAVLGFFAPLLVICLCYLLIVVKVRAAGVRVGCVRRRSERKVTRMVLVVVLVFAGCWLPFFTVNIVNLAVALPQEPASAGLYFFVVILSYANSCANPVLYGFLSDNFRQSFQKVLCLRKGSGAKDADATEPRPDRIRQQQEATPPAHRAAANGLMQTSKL
hERG, sequence (Q12809 whole entry): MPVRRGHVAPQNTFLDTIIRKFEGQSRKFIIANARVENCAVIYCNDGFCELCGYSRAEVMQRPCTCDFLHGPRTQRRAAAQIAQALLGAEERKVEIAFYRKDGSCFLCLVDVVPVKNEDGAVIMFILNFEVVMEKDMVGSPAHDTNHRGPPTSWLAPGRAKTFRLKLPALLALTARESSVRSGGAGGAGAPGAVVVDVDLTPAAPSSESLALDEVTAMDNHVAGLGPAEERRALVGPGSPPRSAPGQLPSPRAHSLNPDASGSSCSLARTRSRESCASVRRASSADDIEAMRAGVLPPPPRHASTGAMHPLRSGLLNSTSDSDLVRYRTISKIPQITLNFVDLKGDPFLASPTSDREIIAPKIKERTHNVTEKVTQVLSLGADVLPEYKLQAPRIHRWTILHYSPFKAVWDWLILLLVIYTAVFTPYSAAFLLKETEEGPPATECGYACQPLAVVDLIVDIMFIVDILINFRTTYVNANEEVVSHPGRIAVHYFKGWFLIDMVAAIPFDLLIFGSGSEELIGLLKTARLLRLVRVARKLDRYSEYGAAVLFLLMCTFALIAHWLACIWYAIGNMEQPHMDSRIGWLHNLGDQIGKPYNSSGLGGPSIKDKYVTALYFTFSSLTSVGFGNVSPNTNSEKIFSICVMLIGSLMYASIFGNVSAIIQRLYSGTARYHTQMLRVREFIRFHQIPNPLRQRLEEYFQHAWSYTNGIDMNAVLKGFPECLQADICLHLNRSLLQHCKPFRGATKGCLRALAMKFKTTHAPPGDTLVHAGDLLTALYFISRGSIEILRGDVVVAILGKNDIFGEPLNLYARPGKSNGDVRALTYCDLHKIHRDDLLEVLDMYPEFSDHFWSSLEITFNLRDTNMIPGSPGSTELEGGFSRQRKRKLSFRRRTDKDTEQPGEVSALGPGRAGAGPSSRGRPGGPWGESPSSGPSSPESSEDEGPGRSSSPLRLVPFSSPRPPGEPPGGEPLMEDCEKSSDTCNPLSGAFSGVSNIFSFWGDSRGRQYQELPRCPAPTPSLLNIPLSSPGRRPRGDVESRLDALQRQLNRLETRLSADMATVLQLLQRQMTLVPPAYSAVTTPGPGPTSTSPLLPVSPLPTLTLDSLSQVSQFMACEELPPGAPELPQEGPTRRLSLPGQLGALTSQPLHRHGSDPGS
SSTR4, sequence (P31391 whole entry): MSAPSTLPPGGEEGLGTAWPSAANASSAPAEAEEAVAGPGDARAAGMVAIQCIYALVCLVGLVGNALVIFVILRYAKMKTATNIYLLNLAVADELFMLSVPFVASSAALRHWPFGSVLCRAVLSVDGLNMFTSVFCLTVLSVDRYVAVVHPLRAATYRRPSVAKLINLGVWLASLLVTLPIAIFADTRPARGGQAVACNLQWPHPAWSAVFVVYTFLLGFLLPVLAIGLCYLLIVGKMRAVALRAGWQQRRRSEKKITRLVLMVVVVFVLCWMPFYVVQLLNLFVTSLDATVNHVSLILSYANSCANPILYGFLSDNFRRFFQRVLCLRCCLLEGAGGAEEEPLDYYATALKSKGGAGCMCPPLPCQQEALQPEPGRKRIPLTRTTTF
SSTR1, sequence (P30872 whole entry): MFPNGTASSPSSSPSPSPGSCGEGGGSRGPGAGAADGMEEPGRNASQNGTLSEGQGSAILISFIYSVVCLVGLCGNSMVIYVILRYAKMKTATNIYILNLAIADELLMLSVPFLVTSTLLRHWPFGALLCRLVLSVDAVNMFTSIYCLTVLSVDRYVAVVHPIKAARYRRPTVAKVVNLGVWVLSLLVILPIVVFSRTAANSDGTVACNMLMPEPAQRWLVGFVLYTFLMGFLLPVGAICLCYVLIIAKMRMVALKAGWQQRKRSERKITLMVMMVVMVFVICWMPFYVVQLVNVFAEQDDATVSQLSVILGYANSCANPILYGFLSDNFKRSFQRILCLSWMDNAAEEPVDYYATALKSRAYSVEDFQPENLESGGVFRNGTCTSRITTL
SSTR3, sequence (P32745 whole entry): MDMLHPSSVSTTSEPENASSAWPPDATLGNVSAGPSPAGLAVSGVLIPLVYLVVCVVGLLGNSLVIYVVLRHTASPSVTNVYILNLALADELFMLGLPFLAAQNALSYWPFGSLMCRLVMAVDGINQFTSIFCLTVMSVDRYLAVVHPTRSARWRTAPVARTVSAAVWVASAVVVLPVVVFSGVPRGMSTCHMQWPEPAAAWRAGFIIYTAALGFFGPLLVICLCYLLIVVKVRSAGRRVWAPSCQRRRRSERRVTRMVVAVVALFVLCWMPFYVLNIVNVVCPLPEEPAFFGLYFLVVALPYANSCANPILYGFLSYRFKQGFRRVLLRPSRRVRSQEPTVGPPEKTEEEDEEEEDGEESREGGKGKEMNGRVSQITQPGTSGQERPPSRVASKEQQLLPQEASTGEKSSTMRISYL

COc1cc2cc(c1Cl)N(C)C(=O)C[C@H](OC(=O)[C@H](C)N(C)C(=O)CCSSC[C@H](NC(=O)[C@@H]1CSSC[C@H](NC(=O)[C@H](N)Cc3ccccc3)C(=O)N[C@@H](Cc3ccc(O)cc3)C(=O)N[C@H](Cc3c[nH]c4ccccc34)C(=O)N[C@@H](CCCCN)C(=O)N[C@@H]([C@@H](C)O)C(=O)N1)C(N)=O)[C@]1(C)O[C@H]1[C@H](C)[C@@H]1C[C@@](O)(NC(=O)O1)[C@H](OC)/C=C/C=C(\C)C2 [Conjugate 57]
Ki [1]: 19.8 nM | Ki [2]: 5480 nM | Ki [3]: 310 nM | Ki [4]: 9.6 nM | AST and ALT ([5]; 1.0 mg/kg): no effects on AST and ALT | Day 5 weight change (%) ([5]; 1.0 mg/kg): −0.73% | Day 10 weight change (%) ([5]; 1.0 mg/kg): +1.8% | complete blood count (CBC) and WBC count ([5]; 1.0 mg/kg and […]): no significant changes in complete blood count (CBC) and WBC count | tolerability ([5]; 1.0 and […] versus DM1 0.4 mg/kg, 10-day study): significantly improved tolerability versus DM1 | growth of IMR-32 cells [6]: inhibited the growth of IMR-32 cells | Number of cells with positive CC3 stain, Core ([7]; 24 h): 50.3 | Number of cells with positive CC3 stain, Middle ([7]; 24 h): 27.0 | Number of cells with positive CC3 stain, Periphery ([7]; 24 h): 9.7 | Number of cells with positive PH3 stain, Core ([7]; 24 h): 74.7 | Number of cells with positive PH3 stain, Middle ([7]; 24 h): 122.3 | Number of cells with positive PH3 stain, Periphery ([7]; 24 h): 158.3 | Number of cells with positive CC3 stain, Core ([7]; 72 h): 106.7 | Number of cells with positive CC3 stain, Middle ([7]; 72 h): 72.0 | Number of cells with positive CC3 stain, Periphery ([7]; 72 h): 41.0 | Number of cells with positive PH3 stain, Core ([7]; 72 h): 113.0 | Number of cells with positive PH3 stain, Middle ([7]; 72 h): 144.3 | Number of cells with positive PH3 stain, Periphery ([7]; 72 h): 215.7 | time of PH3 signal peak, IHC ([8]; 2 mg/kg): 48 h | time of peak in CC3 activity ([8]; 2 mg/kg): 72 h | time of peak response for PH3, Western Blot ([8]; 2 mg/kg): 48 h | time of peak of apoptosis as indicated by CC3 levels (fold change, FIG. 21) ([8]; H69): 72 h | time of peak of cell arrest as indicated by PH3 levels (fold change, FIG. 21) ([8]; H69): 48 h | inhibition of hERG [9]: no inhibition | shift in PH3 assay on competition with octreotide [10]: 2.6 fold
